Measurements as given in patent publication US7994402B2, “Method of increasing plant organ and seed size in a plant” (Monsanto Technology LLC, priority 2002, dated 2011).

Molecular target: T1, A. thaliana protein molecule SEQ ID NO: 4 (His-tagged, from pMON63134) (Arabidopsis thaliana, UniProt Q9ZW18)
T1 construct: His-tag (N); made in house; host or cells: E. coli (pET-28b vector, plasmid pMON63134)
Test: Spectrophotometric reductase assay, consumption or production of NADPH at 340 nm
Format: biochemical
Excerpt: Appropriate clones (as shown in FIGS. 4-7) expressing all four versions of above-mentioned proteins in E. coli were identified by appropriate antibiotic selection as described by the manufacturer (Novagen 441 Charmany Drive Madison, Wis., 53719, USA). Expressed protein bands of the predicted sizes were identified by analytical SDS poly acrylamide gel electrophoresis (Laemmli, U.K., Nature, 227, 680, 1970) to confirm the expression of desired protein. […] Protein obtained from the plasmid pMON63134 (FIG. 6) was chosen for assay work described below. Protein extracts were prepared by freeze thawing and sonication as described Cull and McHenry (Cull M and McHenry C. S. Methods in Enzymology 182, 147-153, 1990). Pellets were resuspended in an appropriate volume of either 50 mM Tris-HCl pH 7.4 250 mM NaCl and 500 μM EDTA with 0.05% CHAPS and 1 mM ABESF or 50 mM KH2PO4 pH-7.2 250 mM NaCl and 250 μM EDTA with 0.05% CHAPS and 1 mM ABESF, buffer. Crude extracts containing His-tagged protein were applied to equilibrated His-Trap (Pharmacia Piscataway, N.J.) columns and purified by standard procedures as described by the manufacturer of the columns. Steps included a 10 mM imidazole elution/wash and elution in 250 mM imidazole. As a result the Arabidopsis tagged protein was partially purified (approximately 85-90% by SDS-PAGE stained with Coomasie Blue). Purified samples were gel filtered into 50 mM KH2PO4 pH-7.2 250 mM NaCl and 250 μM EDTA, 10% glycerol and stored at −80° C. until use. Protein concentrations were 1.5 to 1.7 mg/mL, based on the method of Bradford (Bradford M, Anal Biochem, 72, 248, 1976 and Bio-Rad Laboratories Procedure bulletin 1123) with BSA standard (Bradford reagent and BSA was from Bio-Rad Laboratories Headquarters 1000 Alfred Nobel Drive Hercules, Calif. 94547). The assays described below used 10 or 15 uL of this solution (15 to 22 μg per reaction).
Spectrophotometric assays were used for determination of enzyme activities of purified proteins. Assays were based on earlier described methods (Portsteffen et al. Phyochemistry, 37, 391, 1994). […] Assays were performed in a Varian Cary 50 Bio spectrophotometer (Varian Instruments Inc. AA, ICP, UV, to Fluorescence Products 679 Springvale RoadMulgrave, Victoria 3170 Australia). All assays were run at 30° C. for 10 to 30 minutes in 1 mL volumes using 100 mM KH2PO4 pH 6.5, 250 μM EDTA or 50 mM KH2PO4 pH-7.2, 250 mM NaCl, and 250 μM EDTA as reaction buffer. If metals were added they were supplemented to reactions in cuvettes from 100 mM stocks of either ZnCl2 and or MgCl2. Substrates included those found in table 8. […] Controls contained no substrate to determine the background rate of consumption and degradation of NADPH. NADPH solutions were freshly made and checked by UV-vis for degradation. Enzyme solutions were supplemented with 1 mM MgCl2 and 1 mM Zn Cl2 which were at 1.5 to 1.7 mg/mL concentrations. The assays used 10 or 15 μl of this solution (ca. 15 to 22 μg per reaction). Stock solutions of the substrates (20 to 500 mM) were made up in a reaction buffer or as noted. Steroids solutions were made in 100% EtOH. From these stock solutions additions to the assays were made directly. Precipitation of steroids was observed. Thus, the soluble concentration of steroids in reaction mixture is not accurately known in each case. However, good estimate of substrate (sterol) concentration would be 100 to 200 μM for a saturated solution under these conditions. […] In addition to cell extract control, a substrate control was also employed because solutions of some substrates tested can have a lower pH at described assay conditions which may affect rates of NADPH degradation and enzyme activity under assay conditions.

T1 sequence (Q9ZW18 1-268): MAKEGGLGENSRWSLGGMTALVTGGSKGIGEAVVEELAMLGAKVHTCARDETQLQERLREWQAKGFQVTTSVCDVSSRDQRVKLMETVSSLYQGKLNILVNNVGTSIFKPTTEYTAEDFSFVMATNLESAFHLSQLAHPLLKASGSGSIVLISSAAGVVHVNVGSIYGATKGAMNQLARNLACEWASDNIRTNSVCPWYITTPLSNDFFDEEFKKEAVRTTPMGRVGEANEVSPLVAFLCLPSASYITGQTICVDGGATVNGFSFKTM

## C[C@]12CCC(=O)C=C1CCC1C2CC[C@]2(C)C(=O)CCC12 (stereo partly drawn) [4-androstene-3,17-dione]
100 μM
  Activity (substrate): YES 100 μM

## O=C(O)C(O)C(O)C(O)C(O)CO (stereo not drawn) [Potassium d-gluconate]
25 mM
  Activity (substrate): No 25 mM

## CN1C2CCC1CC(=O)C2 [Tropinone]
1 and 10 mM
  Activity (substrate): No retested with new enzyme 1 and 10 mM

## O=C1OC(CO)[C@H](O)C(O)C1O (stereo partly drawn) [δ-gluconolactone]
25 mM
  Activity (substrate): No 25 mM

## O=C1OC(CO)[C@@H](O)[C@H](O)C1O (stereo partly drawn) [Glucono 1,5 lactone]
25 mM
  Activity (substrate): No 25 mM

## OC[C@H]1O[C@@](CO)(O[C@H]2O[C@H](CO)[C@@H](O)[C@H](O)[C@H]2O)[C@@H](O)[C@@H]1O [Sucrose]
25 mM
  Activity (substrate): No 25 mM

## OCC(O)C(O)C(O)CO (stereo not drawn) [Arabinitol]
25 mM
  Activity (substrate): No 25 mM

## CN1C2CCC1CC(O)C2 (stereo not drawn) [Tropine]
1 and 10 mM
  Activity (substrate): No retested with new enzyme 1 and 10 mM

## isopropanol
68 mM, substrate for the reverse reaction
  Activity (substrate): Yes 68 mM
At same concentrations, reverse reaction
  substrate quality compared with acetone: At high concentrations it is a substrate for the reverse reaction but at same concentrations is a poorer substrate than acetone indicating potential preference for the reductase activity under these conditions.

## C[C@]12CCC(=O)CC1CCC1C2CC[C@]2(C)C(=O)CCC12 (stereo in doubt) [5α-androstane-3,17-dione]
100 μM
  Activity (substrate): YES 100 μM

## OCC1O[C@H](O)C(O)[C@@H](O)[C@@H]1O (stereo partly drawn) [D-Glucose]
25 mM
  Activity (substrate): No 25 mM

## acetone
65 mM
  Activity (substrate): Yes
At lower concentrations than 65 mM
  Activity (substrate): Much lower

## C=C1C[C@]23C[C@@]1(O)CC[C@H]2[C@@]12C=C[C@H](O)[C@@](C)(C(=O)O1)[C@H]2[C@@H]3C(=O)O [Gibberellic Acid (GA3)]
1 and 10 mM
  Activity (substrate): No 1 and 10 mM
